# Laboratory results reported in US11033518B2, “Pharmaceutical composition containing niclosamide for treating axin-GSK3 interaction-related diseases” (BAOBAB PHARM CO., LTD., priority 2017, dated 2021).
# Assays:
# [1] = test system: Snail, E-cadherin; assay: Immunoblot of Snail and E-cadherin in SW480 xenograft tumor; assay type: in vivo, mice; conditions: 50 mg/kg, 200 mg/kg intraperitoneally for 3 days
# Protocol: In order to investigate in vivo MoA of niclosamide controlling Snail-mediated EMT, through xenografts, the change of protein amount of Snail and E-cadherin in the tumor by niclosamide treatment was confirmed. The colorectal cancer cell line, SW480 cells (5×10^6) were subcutaneously injected to nude mice. When the tumor size became 500 mm^3 on average, mice were randomly divided into 3 groups, and a vehicle or niclosamide (50 mg/kg, 200 mg/kg) was intraperitoneally injected for 3 days. After sacrificing mice, the tumor tissue part was separated using Pro-prep protein extraction solution (#17081, Intron), and the amount of protein of Snail and E-cadherin in the tumor sample was measured by immunoblot assay.
# [2] = test system: Snail, E-cadherin; assay: Snail western blot and E-cadherin dual luciferase assay in colorectal cancer cells; assay type: cell-based; conditions: as concentration increased
# Excerpt: In order to confirm whether niclosamide induced snail-mediated EMT recovery, beta-catenin (β-catenin) expression and TCF/LEF reporter (Topflash) activity change, and Snail and E-cadherin protein expression were confirmed.
# Through the western blot, Snail expression change was confirmed, and through the dual luciferase assay system, the expression of E-cadherin protein was confirmed.
# [3] = test system: TCF/LEF transcriptional activity induced by mutant APC; assay: TCF/LEF transcriptional activity in 293 cell transformed by mutant APC; assay type: cell-based; conditions: 0, 0.125, 0.25, 0.5 μM, 24 hours
# Protocol: Based on the results of Examples 2-5 that niclosamide inhibited Wnt activity and EMT through Axin-GSK3 inhibition, whether niclosamide could attenuate the TCF/LEF transcriptional activity induced by mutant APC was confirmed.
# After transforming the mutant APC expression vector, pCMV-neo-Bam APC 1-1309 (#16508, Addgene) or pCMV-neo-BamAPC 1-1941 (#16510, Addgene) and Topflash reporter vector to 293 cell (ATCC), niclosamide (0 μM, 0.125 μM, 0.25 μM and 0.5 μM) was treated for 24 hours. The TCF/LEF transcriptional activity was quantified by measuring the luciferase activity as same as Example 2.
# [4] = test system: TCF/LEF transcriptional activity; assay: TCF/LEF reporter (Topflash) dual luciferase assay in colorectal cancer cells; assay type: cell-based; conditions: 0, 0.125, 0.25, 0.5 nM; as concentration increased
# Protocol: At first, after treating niclosamide of nM units at concentrations of 0 nM, 0.125 nM, 0.25 nM and 0.5 nM to colorectal cancer cells for 24 hours, the beta-catenin (β-catenin) activity and TCF/LEF reporter (Topflash) activity of colorectal cancer cells were measured.
# The TCF/LEF transcriptional activity was carried out by transformation with 100 ng of a reporter gene and 1 ng of transfection control pRL-SV40-Renilla. The reporter activity was measured with a dual luciferase assay system (Promega) in 48 hours after infection, and was standardized by measuring the co-transformed renilla activity, and the reporter gene activity was represented by light units in proportion to light units obtained from the negative control group.
# [5] = test system: intestinal adenoma; assay: Adenoma formation in APC-MIN mice model; assay type: in vivo
# Protocol: In addition, in order to confirm the therapeutic effect of niclosamide in vivo, the effect of niclosamide affecting on adenoma formation in APC-MIN (multiple intestinal neoplasia, APCΔ850) mice model was confirmed.
# APC-MIN mice were prepared by crossbreeding of wild-type C57BL/6J (APC+/+) females and MIN C57BL/6J (APCMin/+) males, and APC-MIN descendants were randomly assigned in subgroups at 3 weeks age by identifying with PCR-based assay. A vehicle or niclosamide (50 mg/kg) was intraperitoneally injected daily (6 days/week), and mice were observed daily, and the weight was measured twice a week. After the end of 14 weeks, mice were sacrificed and the whole intestine was collected and intestinal flakes were opened longitudinally with scissors, and were washed with saline and were unfolded, and then tissues were obtained. The tissues were fixed with 10% formalin for 24 hours and were washed with 70% alcohol. The fixed intestinal tissues were observed using a stereomicroscope, and the size of adenoma (small, <1 mm; medium 1˜3 mm; large >3 mm) was discriminated and counted for each mouse. In case of oral administration, APC-MIN mice ingested niclosamide mixed with 15% sugar gel vehicle daily (6 days/week) for 14 weeks. The number and size of adenoma were measured with a stereomicroscope.
# [6] = test system: HCT116 and SW480 cells; assay: Tumor growth of HCT116 and SW480 cells injected into nude mice; assay type: in vivo; conditions: intraperitoneal administration daily
# Protocol: Next, the effect of niclosamide having tumor formation potential in vivo experiment of HCT116 and SW480 cells was investigated.
# Colorectal cancer cell lines HCT116 (5×10^6 cells) and SW480 (5×10^6 cells) were mixed in 100 μl PBS and were injected into flank subcutaneous tissues in female athymic nude mice (6 weeks old). Mice were randomly assigned to two groups and a vehicle and niclosamide were intraperitoneally injected daily and they were treated for […]. Niclosamide was dissolved with 10% Cremophor EL (BASF) and 0.9% NaCl and then was intraperitoneally injected. After injection of colorectal cancer cells, mice were observed daily and the weight change was measured twice a week. In addition, when a tumor was observed, it was measured with calipers. The tumor size was calculated by the equation (LXW2)/2. Herein, L is a long diameter of the tumor and W is a short diameter.
# [7] = target: Helicobacter pylori CagA - GSK3 binding (Homo sapiens, UniProt P49841); assay: Immunoprecipitation of CagA and GSK3; conditions: various amounts
# Sequence of Helicobacter pylori CagA - GSK3 binding (P49841 whole entry): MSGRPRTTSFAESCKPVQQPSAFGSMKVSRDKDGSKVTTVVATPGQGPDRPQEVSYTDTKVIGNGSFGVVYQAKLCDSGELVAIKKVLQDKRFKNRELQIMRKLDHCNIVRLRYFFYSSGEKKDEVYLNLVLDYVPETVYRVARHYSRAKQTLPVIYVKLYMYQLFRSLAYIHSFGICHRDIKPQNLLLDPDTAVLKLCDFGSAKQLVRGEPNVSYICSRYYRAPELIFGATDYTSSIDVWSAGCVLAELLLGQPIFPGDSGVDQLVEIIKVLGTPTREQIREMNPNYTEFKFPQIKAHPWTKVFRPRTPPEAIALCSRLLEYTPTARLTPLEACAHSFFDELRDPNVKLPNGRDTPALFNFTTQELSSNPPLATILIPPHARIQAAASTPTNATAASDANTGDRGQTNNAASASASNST
# Excerpt: In view of the results of Examples 2˜5 that niclosamide inhibited Wnt activity and EMT through Axin-GSK3 inhibition, and that CagA of Helicobacter (Helicobacter pylori) bound to GSK-3 similarly to Axin, the effect of GSK-3 binding and Snail induction by CagA of Helicobacter pylori by niclosamide was confirmed. It was confirmed that binding of CagA and GSK3 was inhibited by niclosamide similarly to Axin 2, when examining with immunoprecipitation after adding various amounts of niclosamide to this sample (FIG. 10A). In addition, it could be seen that Snail expression by CagA was inhibited when treating niclosamide after inducing CagA and Snail expression in the 293 cell (FIG. 10B). Through such a result, it could be seen that niclosamide inhibited the function of CagA performing function similar to Axin and thereby inhibited gastric cancer occurrence and inflammation by Helicobacter.
# [8] = orally administered for 14 weeks
structure (smiles),measurement,setting,value
O=C(Nc1ccc([N+](=O)[O-])cc1Cl)c1cc(Cl)ccc1O [niclosamide],amount of E-cadherin in tumor,[1],increased
same,presence of Snail in tumor,[1],reduced
same,E-cadherin (promoter activity),[2]; dual luciferase assay,increased
same,expression of Snail,[2]; western blot,reduced
same,TCF/LEF transcriptional activity increased by mutant APC,[3],reduced
same,TCF/LEF transcriptional activity,[4],reduced
same,body weight,"[5]; intraperitoneal 50 mg/kg daily, 14 weeks",did not change
same,intestinal adenoma,"[5]; intraperitoneal 50 mg/kg daily, at 14 weeks",significantly reduced
same,condition of experimental animal,[5]; [8],stable during the drug treatment
same,intestinal adenoma formation,[5]; [8],significantly inhibited
same,tumor growth of colorectal cancer cells,[6],significantly inhibited
same,binding of CagA and GSK3,[7],inhibited
